Consider 51 compounds from patent publication US8063220B2, “Sulfonyl-quinoline derivatives” (Richter Gedeon Nyrt., priority 2007, dated 2011).

A value given as a limit tells only on which side of the number the result lay.

For one experiment, the target named is T1, rat mGluR1 (Rattus norvegicus, UniProt P23385).
T1 construct: rat cerebellar membrane preparation was used; from tissue; host or cells: rat cerebellum (membrane preparation)
The experiment can be described thus: MGluR1 receptor binding test ([3H]R214127 displacement, rat cerebellar membrane preparation). To be noted: rat mGluR1, [3H]R214127 3 nM; read-out: mGlu1 Ki. The procedure:
MGluR1 receptor binding tests were performed according to modified method of Lavreysen et al. (Mol. Pharm., 2003, 63, 1082). Based on the high homology between the human and rat mGluR1 receptors, rat cerebellar membrane preparation was used to determine the binding characteristics of reference compounds and novel compounds to the rat mGluR1. [3H]R214127 (3 nM) was used as radioligand and the nonspecific binding was determined in the presence of 1 μM of R214127.
IC-50 values were determined from displacement curves by nonlinear regression analysis and were converted to Ki values using the equation method of Cheng and Prusoff (Biochem. Pharmacol., 1973, 22, 3099).

Another experiment deals with T2, rat mGluR5 (Rattus norvegicus, UniProt P31424).
T2 construct: Rat cerebro-cortical membrane preparation was used; from tissue; host or cells: rat cerebral cortex (membrane preparation)
The experiment in a line: MGluR5 receptor binding test ([3H]-M-MPEP displacement, rat cerebro-cortical membrane preparation). The following applies: rat mGluR5, [3H]-M-MPEP 2 nM; read-out: mGlu5 Ki. The procedure: Rat cerebro-cortical membrane preparation was used to determine the binding characteristics of reference compounds and novel compounds to the rat mGluR5. The A18 cell line expressing hmGluR5a (purchased from Euroscreen) was used to determine binding characteristics of the chemical compounds to the human mGluR5a receptor. [3H]-M-MPEP (2 nM) was used as radioligand. The nonspecific binding was determined in the presence of 10 μM M-MPEP.

T1 sequence (P23385 19-1199): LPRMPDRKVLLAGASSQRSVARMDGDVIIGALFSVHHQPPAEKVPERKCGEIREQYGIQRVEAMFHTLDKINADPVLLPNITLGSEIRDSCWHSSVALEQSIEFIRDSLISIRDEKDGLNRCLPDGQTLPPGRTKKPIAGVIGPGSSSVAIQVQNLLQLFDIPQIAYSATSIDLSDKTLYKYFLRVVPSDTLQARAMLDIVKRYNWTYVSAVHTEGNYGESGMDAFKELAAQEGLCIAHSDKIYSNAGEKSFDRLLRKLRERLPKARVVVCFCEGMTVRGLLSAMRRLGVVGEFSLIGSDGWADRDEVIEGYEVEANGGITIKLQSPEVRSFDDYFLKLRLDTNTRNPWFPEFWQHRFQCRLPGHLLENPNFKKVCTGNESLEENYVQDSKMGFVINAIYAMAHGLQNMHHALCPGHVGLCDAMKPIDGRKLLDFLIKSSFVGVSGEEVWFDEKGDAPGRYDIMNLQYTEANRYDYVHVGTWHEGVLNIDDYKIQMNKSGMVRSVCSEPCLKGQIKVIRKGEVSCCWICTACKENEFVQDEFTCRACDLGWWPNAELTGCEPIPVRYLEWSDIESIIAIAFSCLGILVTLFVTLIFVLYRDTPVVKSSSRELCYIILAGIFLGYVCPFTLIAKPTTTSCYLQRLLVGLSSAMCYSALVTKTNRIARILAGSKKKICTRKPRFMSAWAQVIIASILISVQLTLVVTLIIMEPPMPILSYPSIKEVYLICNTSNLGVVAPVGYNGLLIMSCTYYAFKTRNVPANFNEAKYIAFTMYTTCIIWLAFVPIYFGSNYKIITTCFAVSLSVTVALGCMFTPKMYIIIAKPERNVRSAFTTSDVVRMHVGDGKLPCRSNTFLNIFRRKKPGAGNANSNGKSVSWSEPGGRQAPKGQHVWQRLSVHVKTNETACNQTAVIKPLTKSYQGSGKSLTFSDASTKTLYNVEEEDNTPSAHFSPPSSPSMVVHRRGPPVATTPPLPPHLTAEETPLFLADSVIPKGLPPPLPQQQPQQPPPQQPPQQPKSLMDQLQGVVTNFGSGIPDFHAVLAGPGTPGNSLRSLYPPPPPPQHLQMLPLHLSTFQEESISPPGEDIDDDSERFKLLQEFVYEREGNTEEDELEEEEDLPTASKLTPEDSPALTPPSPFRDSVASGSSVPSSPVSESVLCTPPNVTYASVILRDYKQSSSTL
T2 sequence (P31424 21-1203): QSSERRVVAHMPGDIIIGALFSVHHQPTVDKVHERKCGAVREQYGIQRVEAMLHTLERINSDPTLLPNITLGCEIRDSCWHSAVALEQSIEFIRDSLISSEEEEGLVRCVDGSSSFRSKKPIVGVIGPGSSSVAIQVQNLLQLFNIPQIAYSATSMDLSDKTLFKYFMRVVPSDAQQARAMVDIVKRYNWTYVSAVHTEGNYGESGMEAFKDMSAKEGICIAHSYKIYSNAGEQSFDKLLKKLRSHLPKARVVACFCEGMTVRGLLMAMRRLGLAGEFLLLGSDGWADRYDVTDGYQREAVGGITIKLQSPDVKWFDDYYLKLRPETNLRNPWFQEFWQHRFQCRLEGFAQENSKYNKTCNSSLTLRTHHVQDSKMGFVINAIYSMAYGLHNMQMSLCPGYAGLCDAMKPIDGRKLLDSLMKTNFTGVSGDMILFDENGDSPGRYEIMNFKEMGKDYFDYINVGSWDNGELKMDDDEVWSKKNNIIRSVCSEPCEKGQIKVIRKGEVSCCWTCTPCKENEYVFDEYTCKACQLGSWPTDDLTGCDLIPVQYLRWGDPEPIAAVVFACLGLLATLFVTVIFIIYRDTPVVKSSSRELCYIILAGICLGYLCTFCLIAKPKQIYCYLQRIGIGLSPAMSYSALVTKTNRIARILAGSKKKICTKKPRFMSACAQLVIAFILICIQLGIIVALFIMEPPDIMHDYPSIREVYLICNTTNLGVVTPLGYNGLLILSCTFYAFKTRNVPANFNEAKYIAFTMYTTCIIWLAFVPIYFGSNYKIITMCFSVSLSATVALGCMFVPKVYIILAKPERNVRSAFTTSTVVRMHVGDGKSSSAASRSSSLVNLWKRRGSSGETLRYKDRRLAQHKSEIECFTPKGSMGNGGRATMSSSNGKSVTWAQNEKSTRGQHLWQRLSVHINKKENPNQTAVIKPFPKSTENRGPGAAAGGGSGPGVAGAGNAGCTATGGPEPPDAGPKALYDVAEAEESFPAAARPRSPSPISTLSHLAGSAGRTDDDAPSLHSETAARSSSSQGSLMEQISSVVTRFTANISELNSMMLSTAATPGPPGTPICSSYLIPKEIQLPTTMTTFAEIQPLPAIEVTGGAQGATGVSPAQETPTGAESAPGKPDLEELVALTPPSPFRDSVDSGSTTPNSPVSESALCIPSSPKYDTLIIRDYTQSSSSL

As to `Cc1ccc(S(=O)(=O)c2cnc3ccccc3c2-c2ccc(Cl)cc2)cc1` [Compound 1, 4-(4-chloro-phenyl)-3-(4-methyl-benzenesulfonyl)-quinoline], the Ki was 0.2 to 0.5 µM at rat mGluR1 and less than 0.2 µM at rat mGluR5.
On to `O=S(=O)(c1ccc(F)cc1)c1cnc2ccc(Cl)cc2c1-c1ccc(Cl)cc1` [Compound 2], for which the Ki at rat mGluR1 and on rat mGluR5 was more than 0.5 µM each time.
For the compound `O=S(=O)(c1ccc(F)cc1)c1cnc2ccc(Cl)cc2c1-c1cccc(Cl)c1` [Compound 3], the Ki on rat mGluR1 and on rat mGluR5 was more than 0.5 µM throughout.
Regarding `O=S(=O)(c1ccc(Cl)cc1)c1cnc2cc(Cl)ccc2c1-c1ccc(F)cc1` [Compound 4, 7-chloro-3-(4-chloro-benzenesulfonyl)-4-(4-fluoro-phenyl)-quinoline], the inhibition constant (Ki) at rat mGluR1 is 0.2 to 0.5 µM; at rat mGluR5, less than 0.2 µM.
Taken in the same sequence, the figures for `O=S(=O)(c1ccc(Cl)cc1)c1cnc2c(Cl)cccc2c1-c1ccc(Cl)cc1` [Compound 5] were more than 0.5 µM and 0.2 to 0.5 µM.
For `O=S(=O)(c1ccc(Cl)cc1)c1cnc2c(Cl)cccc2c1-c1cccc(Cl)c1` [Compound 6] the same measures were more than 0.5 µM and 0.2 to 0.5 µM.
For the compound `O=S(=O)(c1ccc(Cl)c(Cl)c1)c1cnc2c(Cl)cccc2c1-c1cccc(Cl)c1` [Compound 7], the inhibition constant (Ki) at rat mGluR1 and at rat mGluR5 was less than 0.2 µM throughout.
For the compound `O=S(=O)(c1ccc(Cl)cc1)c1cnc2ccc(F)cc2c1-c1cccc(Cl)c1` [Compound 8], the Ki at rat mGluR1 and at rat mGluR5 was more than 0.5 µM throughout.
Turning to `O=S(=O)(c1ccc(F)cc1)c1cnc2cc(F)ccc2c1-c1cccc(F)c1` [Compound 9, 7-fluoro-3-(4-fluoro-benzenesulfonyl)-4-(3-fluoro-phenyl)-quinoline], the figures for the Ki at rat mGluR1 and at rat mGluR5 were 0.2 to 0.5 µM and less than 0.2 µM, respectively.
Taken in the same sequence, the figures for `COc1ccc(-c2c(S(=O)(=O)c3ccc(F)cc3)cnc3cc(F)ccc23)cc1` [Compound 10] were more than 0.5 µM and 0.2 to 0.5 µM.
Taken in the same sequence, the figures for `COc1ccc(S(=O)(=O)c2cnc3cc(F)ccc3c2-c2ccc(Cl)cc2)cc1` [Compound 11] were more than 0.5 µM and less than 0.2 µM.
For `COc1ccc(S(=O)(=O)c2cnc3cc(F)ccc3c2-c2cccc(F)c2)cc1` [Compound 12] the same measures were more than 0.5 µM and 0.2 to 0.5 µM.
For `COc1ccc(-c2c(S(=O)(=O)c3ccc(OC)cc3)cnc3cc(F)ccc23)cc1` [Compound 13], the Ki on rat mGluR1 is more than 0.5 µM; on rat mGluR5, less than 0.2 µM.
For `COc1ccc(S(=O)(=O)c2cnc3cc(F)ccc3c2-c2ccc(F)cc2)cc1` [Compound 14] the same measures were more than 0.5 µM and 0.2 to 0.5 µM.
For `O=S(=O)(c1cccc(F)c1)c1cnc2cc(F)ccc2c1-c1cccc(F)c1` [Compound 15] the same measures were 0.2 to 0.5 µM and less than 0.2 µM.
Taken in the same sequence, the figures for `O=S(=O)(c1cccc(F)c1)c1cnc2cc(F)ccc2c1-c1ccc(F)cc1` [Compound 16] were more than 0.5 µM and less than 0.2 µM.
As to `Cc1ccc(S(=O)(=O)c2cnc3cc(F)ccc3c2-c2cccc(Cl)c2)cc1C` [Compound 17, 4-(3-chloro-phenyl)-3-(3,4-dimethyl-benzenesulfonyl)-7-fluoro-quinoline], the Ki at rat mGluR1 is more than 0.5 µM; at rat mGluR5, less than 0.2 µM.
Taken in the same sequence, the figures for `Cc1ccc(S(=O)(=O)c2cnc3cc(F)ccc3c2-c2cccc(F)c2)cc1C` [Compound 18] were more than 0.5 µM and less than 0.2 µM.
For `COc1cccc(-c2c(S(=O)(=O)c3ccc(C)c(C)c3)cnc3cc(F)ccc23)c1` [Compound 19] the same measures were more than 0.5 µM and less than 0.2 µM.
Taken in the same sequence, the figures for `O=S(=O)(c1ccc(F)cc1)c1cnc2c(F)cccc2c1-c1cccc(Cl)c1` [Compound 20] were less than 0.2 µM and less than 0.2 µM.
For `O=S(=O)(c1ccc(F)cc1)c1cnc2c(F)cccc2c1-c1ccc(Cl)cc1` [Compound 21], the Ki was 0.2 to 0.5 µM at rat mGluR1 and less than 0.2 µM at rat mGluR5.
In the case of `O=S(=O)(c1ccc(F)cc1)c1cnc2c(F)cccc2c1-c1cccc(F)c1` [Compound 22], the Ki on rat mGluR1 is 0.2 to 0.5 µM; at rat mGluR5, less than 0.2 µM.
For `COc1cccc(-c2c(S(=O)(=O)c3ccc(F)cc3)cnc3c(F)cccc23)c1` [Compound 23] the same measures were more than 0.5 µM and less than 0.2 µM.
As for `O=S(=O)(c1ccc(F)cc1)c1cnc2ccc(F)cc2c1-c1cccc(Cl)c1` [Compound 24], the Ki at rat mGluR1 and on rat mGluR5 was more than 0.5 µM throughout.
`O=S(=O)(c1ccc(F)cc1)c1cnc2ccc(F)cc2c1-c1ccc(Cl)cc1` [Compound 25]: the Ki at rat mGluR1 is more than 0.5 µM; on rat mGluR5, 0.2 to 0.5 µM.
For `O=S(=O)(c1ccc(F)cc1)c1cnc2ccc(F)cc2c1-c1cccc(F)c1` [Compound 26] the same measures were more than 0.5 µM and 0.2 to 0.5 µM.
As for `COc1ccc(-c2c(S(=O)(=O)c3ccc(F)cc3)cnc3ccc(F)cc23)cc1` [Compound 27], the Ki at rat mGluR1 and on rat mGluR5 was more than 0.5 µM in each case.
With `O=S(=O)(c1ccc(F)cc1)c1cnc2ccc(F)cc2c1-c1ccc(F)cc1` [Compound 28], the Ki at rat mGluR1 and at rat mGluR5 was more than 0.5 µM throughout.
On to `COc1ccc(S(=O)(=O)c2cnc3ccc(F)cc3c2-c2ccc(Cl)cc2)cc1` [Compound 29], for which the inhibition constant Ki on rat mGluR1 was more than 0.5 µM; at rat mGluR5 it was less than 0.2 µM.
Taken in the same sequence, the figures for `COc1ccc(S(=O)(=O)c2cnc3ccc(F)cc3c2-c2cccc(F)c2)cc1` [Compound 30] were more than 0.5 µM and 0.2 to 0.5 µM.
Taken in the same sequence, the figures for `O=S(=O)(c1ccc(Cl)cc1)c1cnc2ccc(F)cc2c1-c1ccc(F)cc1` [Compound 31] were more than 0.5 µM and more than 0.5 µM.
Taken in the same sequence, the figures for `O=S(=O)(c1cccc(F)c1)c1cnc2ccc(F)cc2c1-c1ccc(Cl)cc1` [Compound 32] were more than 0.5 µM and more than 0.5 µM.
Consider `Cc1ccc(S(=O)(=O)c2cnc3ccc(F)cc3c2-c2ccc(Cl)cc2)cc1C` [Compound 33], for which the Ki was more than 0.5 µM on rat mGluR1 and less than 0.2 µM at rat mGluR5.
For `COc1cccc(-c2c(S(=O)(=O)c3cccc(Cl)c3)cnc3ccc(F)cc23)c1` [Compound 34] the same measures were more than 0.5 µM and more than 0.5 µM.
Take `O=S(=O)(c1cc(F)cc(F)c1)c1cnc2cc(F)ccc2c1-c1ccc(Cl)cc1` [Compound 35, 4-(4-chloro-phenyl)-3-(3,5-difluoro-benzenesulfonyl)-7-fluoro-quinoline]: the Ki on rat mGluR1 is more than 0.5 µM; on rat mGluR5 it was less than 0.2 µM.
For `O=S(=O)(c1cc(F)cc(F)c1)c1cnc2cc(F)ccc2c1-c1ccc(F)cc1` [Compound 36] the same measures were more than 0.5 µM and less than 0.2 µM.
Taken in the same sequence, the figures for `N#Cc1cccc(S(=O)(=O)c2cnc3cc(F)ccc3c2-c2ccc(Cl)cc2)c1` [Compound 37] were 0.2 to 0.5 µM and less than 0.2 µM.
`N#Cc1cccc(S(=O)(=O)c2cnc3cc(F)ccc3c2-c2cccc(F)c2)c1` [Compound 38]: the Ki was 0.2 to 0.5 µM on rat mGluR1 and less than 0.2 µM at rat mGluR5.
Taken in the same sequence, the figures for `N#Cc1cccc(S(=O)(=O)c2cnc3cc(F)ccc3c2-c2ccc(F)cc2)c1` [Compound 39] were 0.2 to 0.5 µM and less than 0.2 µM.
For `O=S(=O)(c1ccc(F)cc1)c1cnc2cc(F)ccc2c1-c1ccc(F)cc1` [Compound 40] the same measures were more than 0.5 µM and less than 0.2 µM.
Taken in the same sequence, the figures for `O=S(=O)(c1cccc(F)c1)c1cnc2cc(F)ccc2c1-c1ccc(Cl)cc1` [Compound 41] were more than 0.5 µM and less than 0.2 µM.
In the case of `COc1ccc(-c2c(S(=O)(=O)c3cccc(F)c3)cnc3cc(F)ccc23)cc1` [Compound 42], the values for the Ki on rat mGluR1 and at rat mGluR5 were more than 0.5 µM and 0.2 to 0.5 µM, respectively.
Consider `COc1cccc(S(=O)(=O)c2cnc3cc(F)ccc3c2-c2cccc(Cl)c2)c1` [Compound 43], for which the inhibition constant (Ki) on rat mGluR1 is more than 0.5 µM; at rat mGluR5, less than 0.2 µM.
For `COc1cccc(S(=O)(=O)c2cnc3cc(F)ccc3c2-c2ccc(F)cc2)c1` [Compound 44] the same measures were more than 0.5 µM and less than 0.2 µM.
For `Cc1ccc(S(=O)(=O)c2cnc3cc(F)ccc3c2-c2ccc(Cl)cc2)cc1C` [Compound 45] the same measures were more than 0.5 µM and less than 0.2 µM.
For `Cc1ccc(S(=O)(=O)c2cnc3cc(F)ccc3c2-c2ccc(F)cc2)cc1C` [Compound 46] the same measures were more than 0.5 µM and less than 0.2 µM.
Turning to `COc1ccc(S(=O)(=O)c2cnc3cc(F)ccc3c2-c2cccc(Cl)c2)cc1Cl` [Compound 47], the inhibition constant Ki on rat mGluR1 is 0.2 to 0.5 µM; at rat mGluR5, less than 0.2 µM.
`COc1ccc(S(=O)(=O)c2cnc3cc(F)ccc3c2-c2cccc(F)c2)cc1Cl` [Compound 48]: the Ki at rat mGluR1 is more than 0.5 µM; on rat mGluR5, less than 0.2 µM.
For `COc1ccc(S(=O)(=O)c2cnc3cc(F)ccc3c2-c2ccc(F)cc2)cc1Cl` [Compound 49], the results for the Ki on rat mGluR1 and on rat mGluR5 were more than 0.5 µM and less than 0.2 µM, respectively.
Turning to `O=S(=O)(c1cc(Cl)cc(Cl)c1)c1cnc2c(F)cccc2c1-c1ccc(F)cc1` [Compound 50], the Ki at rat mGluR1 and at rat mGluR5 was less than 0.2 µM each time.
For `O=S(=O)(c1cc(Cl)cc(Cl)c1)c1cnc2cc(F)ccc2c1-c1ccc(F)cc1` [Compound 83], the Ki at rat mGluR1 fell in the range of 0.2 to 0.5 µM.
